From patent US7671039B2 (Glucan Corporation, priority 2004, dated 2010) come the findings set out here.

Each structure is given as a SMILES string. Marks after values point to notes of the source that are not given here.

In data set [1] the test system is ddY female mice with ovary extraction. Description: Weight of bone of both thighs in ovary-extracted mice. The class given is in vivo. Particulars: wet weight, FOSA group: Fosamax 10 mg/kg oral, 4 weeks. Here is the method:
After sacrifice, a weight of bone of both thighs is calculated with g unit. To reduce an error arising from a difference of individual body weight, a weight of bone is calculated with relative weight as following equation. Weight of bone=[(absolute weight of bone/body weight at sacrifice)×100]

Data set [2] shares this test system. Description: Histological indices of trabecular and cortical bone of thigh in ovary-extracted mice. It is filed as in vivo. Particulars: FOSA group: Fosamax 10 mg/kg oral, 4 weeks. The text has this:
(§1) For histological analysis of experimental animals, the left thigh of each mouse is separated to fix in 10% neutral buffer formalin (NBF) solution, and then delimed during 5 days at delime solution [24.4% formic acid, […]] (the mixed delime solution is exchanged each day one times during 3 days). And then it is fixed to paraffin and then made fraction ([…]) and dyed with hematoxylineosin.
Body weight, weight of both thigh, histological change including trabecular bone volume (TBV) % and Cortical bone thickness (Cbt) is analyzed. Also, histomorphometric changes of the trochoid bone of left thigh are observed. All experimental result of followings are shown with means±standard deviation. A statistical analysis is carried out by using SPSS For Windows (Release 6.1.3., SPSS Inc, USA) and Mann-Whitney U-Wilcoxon Rank Sum W test(M-W test).
TBV is calculated by using a Auto Image analysis (analySIS Image Processing; SIS, Germany) under 100 magnifications on a microscope (Zeiss, Germany) for regular size of trabecular bone at the trochoid bone of […] (excluding a growth plate). TBV is calculated with (%) unit.
A trabecular bone thickness (Tbt), a number of trabecular bone (Tbn), and a trabecular bone length (Tbl) are calculated by using a Auto Image analysis (analySIS Image Processing; SIS, Germany) under 100 magnifications on a microscope (Zeiss, Germany) for regular size at the trochoid bone of left thigh (excluding a growth plate). Tbt and Tbl are calculated with μm unit, and Tbn is calculated with a number of trabecular bone/all section of the trochoid bone section. Tbt and Tbl is calculated at trabecular bone that is most developed in a regular size of the trochoid bone section.
Cbt is measured at the trochlea neck of thigh and calculated by using a Auto Image analysis (analySIS Image Processing; SIS, Genmany) under 200 magnifications on a microscope (Zeiss, Germany) at prepared histological sample.

For data set [3] the test system is unchanged. Put plainly: Histomorphometric changes of left thigh, Hematoxylin-Eosin dyeing. It is filed as in vivo. Here is the method: as §1
A histomorphometric change of left thigh is analyzed by dyeing with Hematoxylin-Eosin.

For data set [4] the following is noted: FOSA group: Fosamax 10 mg/kg oral; I: body weight after sacrifice − after administration.
Experimental: 25 ddY female mice (age of 6 weeks, SLC, Japan) are used after adaptation during 7 days. The above animals are grouped each 5 and bred in a cage made of polycarbonate under the condition of temperature of 20˜25° C. and humidity of 30˜35%. A cycle of light and darkness is controlled to 12 hours: 12 hours. Feed stuff (Samyang Co., Korea) and water is fed freely. For 20 mice, the both ovary is taken out (ovary extraction : disclosing the both ovary, and then removing all of the both ovary, and then suturing with the same method), and for 5 mice, only sham surgical operation is carried out (sham surgical operation disclosing the both ovary by cutting (3 cm) a skin and an abdominal muscle, and then closing using a skin suturing technique). For the purpose of therapeutic research, a treatment is started after 4 weeks of the ovary extraction, each sample is administrated during 4 weeks.
All sample is stored at a refrigerate (−10° C.) to prevent from a moisture and light. […]
Change of body weight and increasing part is calculated after immediately surgical operation, after 4 weeks of surgical operation, after administration, and each week one times during experiment period. […] Also, an increasing part of body weight during adapting period (Increasing part I) and administrating period (Increasing part II) is calculated as followings. […]

`NCCCC(O)(P(=O)(O)O)P(=O)(O)O` [FOSA, sodium alendronate]: the “Absolute weight of bone” value in data set [1] stood at 0.075 ± 0.006 g. Besides, in data set [2] (control 3.40 ± 1.14), the “Tbn number of trabecular bone” value amounted to 15.20 ± 2.77. Besides, the “Tbt(μm) trabecular bone thickness” value in data set [2] (control 66.40 ± 11.70) is recorded as 93.60 ± 9.56 μm. For the same molecule, the “Cbt(μm) Cortical bone thickness” value in data set [2] (control 99.20 ± 20.46) is reported as 102.50 ± 22.29 μm. Further, in data set [2] (control 524.40 ± 176.78), the “Tbl(μm) trabecular bone length” value is 759.40 ± 89.17*^,## μm. The “TBV (%) trabecular bone volume” value in data set [2] (n = 5, control 20.23 ± 1.72, sham 47.31 ± 5.95) amounted to 35.13 ± 4.28%. The “histomorphometric changes of trabecular bone of left thigh (FIG. 3)” value in data set [3] (Fosamax and beta-glucan groups compared with control group, width or number lower than sham group) is “many an extended trabecular bone”. Moreover, in data set [3] (Fosamax group, 10 mg/kg oral, 4 weeks), the “histomorphometric changes of cortical bone of left thigh (FIG. 4)” value was “Some increased or similar width and histomorphometric property comparing with control group”. In addition, in data set [4], the “Increasing part II of body weight” value is recorded as 3.26 ± 2.73.
